Measured values: ChEMBL document CHEMBL5653598, “In vivo antitumor activity of NVP-AEW541-A novel, potent, and selective inhibitor of the IGF-IR kinase” (Cancer Cell, 2004)
Active and inactive are the calls of the source. No cut-off for these calls is given here.

What was measured:
Insulin receptor [1] = molecular target: T1, Insulin receptor (Homo sapiens, UniProt P06213); assay: Inhibition of GST tagged human Ins-R expressed in baculovirus at pH 7.6 measured after 20 mins in presence of gamma-[33P]-ATP by scintillation counter analysis
[2] = molecular target: T2, Receptor-type tyrosine-protein kinase FLT3 (Homo sapiens, UniProt P36888); assay: Inhibition of GST tagged human Flt-3 expressed in baculovirus at pH 7.6 measured after 15 mins in presence of gamma-[33P]-ATP by scintillation counter analysis
T2 sequence (P36888 whole entry): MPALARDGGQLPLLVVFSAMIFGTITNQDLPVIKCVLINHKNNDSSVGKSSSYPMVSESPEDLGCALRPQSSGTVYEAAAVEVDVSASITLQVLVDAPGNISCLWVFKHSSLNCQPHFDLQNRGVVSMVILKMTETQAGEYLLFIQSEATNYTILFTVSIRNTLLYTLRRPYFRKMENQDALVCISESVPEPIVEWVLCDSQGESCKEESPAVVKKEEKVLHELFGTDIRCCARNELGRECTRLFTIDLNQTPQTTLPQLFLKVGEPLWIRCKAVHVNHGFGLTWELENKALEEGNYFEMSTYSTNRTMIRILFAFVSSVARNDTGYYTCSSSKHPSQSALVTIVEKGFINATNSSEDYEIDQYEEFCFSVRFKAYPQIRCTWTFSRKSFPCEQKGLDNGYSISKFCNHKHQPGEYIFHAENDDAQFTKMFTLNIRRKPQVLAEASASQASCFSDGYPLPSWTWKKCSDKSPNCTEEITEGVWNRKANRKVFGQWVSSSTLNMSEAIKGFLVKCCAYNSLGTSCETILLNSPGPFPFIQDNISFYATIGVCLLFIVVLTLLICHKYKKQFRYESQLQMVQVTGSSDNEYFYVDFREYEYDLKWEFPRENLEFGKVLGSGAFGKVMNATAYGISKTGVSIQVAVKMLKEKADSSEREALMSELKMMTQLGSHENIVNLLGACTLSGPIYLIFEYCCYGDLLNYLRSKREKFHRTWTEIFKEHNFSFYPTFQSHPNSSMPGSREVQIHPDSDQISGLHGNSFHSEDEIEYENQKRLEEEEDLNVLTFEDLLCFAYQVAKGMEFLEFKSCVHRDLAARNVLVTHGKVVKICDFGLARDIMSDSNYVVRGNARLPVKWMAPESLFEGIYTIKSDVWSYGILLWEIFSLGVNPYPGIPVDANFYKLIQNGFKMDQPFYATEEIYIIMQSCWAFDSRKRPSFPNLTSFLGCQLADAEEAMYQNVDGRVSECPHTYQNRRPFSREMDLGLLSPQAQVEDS

NWT-21 [3] = settings: Mus musculus, dose 50.0 mg/kg, route po, time 1.0 hrs
[4] = molecular target: Vascular endothelial growth factor receptor 2 (Homo sapiens, UniProt P35968); assay: Inhibition of GST tagged KDR (unknown origin) expressed in baculovirus at pH 7.6 measured after 10 to 30 mins in presence of gamma-[33P]-ATP by scintillation counter analysis
NWT-21 [5] = assay: Antitumor activity against mouse NWT-21 cells xenografted in Hsd athymic nude mouse assessed as plasma glucose level at 50 mg/kg, po bid measured after 10 days; assay type: functional; settings: time 10 day
NWT-21 [6] = assay: Antitumor activity against mouse NWT-21 cells xenografted in Hsd athymic nude mouse assessed as inhibition of tumor growth at 20 mg/kg, po bid administered for 7 weeks relative to control; assay type: functional; settings: NWT-21, po, 1176 h
[7] = Toxicity in Hsd athymic nude mouse xenografted with NWT-21 cells assessed as body weight at 20 to 50 mg/kg, po bid administered for 7 weeks; assay type: organism-based; settings: in vivo, 1176 h, dose 20-50 mg/kg
[8] = molecular target: Fibroblast growth factor receptor 1 (Homo sapiens, UniProt P11362); assay: Inhibition of GST tagged FGFR-1 (unknown origin) expressed in baculovirus at pH 7.6 measured after 10 to 30 mins in presence of gamma-[33P]-ATP by scintillation counter analysis
[9] = molecular target: Tyrosine-protein kinase ABL1 (Homo sapiens, UniProt P00519); assay: Inhibition of GST tagged c-Abl (unknown origin) expressed in baculovirus infected Sf9 cells at pH 7.5 measured after 10 mins in presence of gamma-[33P]-ATP by scintillation counter analysis
[10] = molecular target: T3, Mast/stem cell growth factor receptor Kit (Homo sapiens, UniProt P10721); assay: Inhibition of c-Kit (unknown origin) in human GIST882 cells assessed as inhibition of autophosphorylation of c-Kit incubated for 90 mins in presence of anti-CD117 antibody by ELISA analysis; assay type: cell-based
NWT-21 [11] = assay: Antitumor activity against mouse NWT-21 cells xenografted in Hsd athymic nude mouse assessed as plasma glucose level at 50 mg/kg, po bid measured after 1 day; assay type: functional
NWT-21 [12] = assay: Antitumor activity against mouse NWT-21 cells xenografted in Hsd athymic nude mouse assessed as inhibition of tumor growth at 30 mg/kg, po bid administered for 7 weeks relative to control; assay type: functional; settings: NWT-21, 1176 h, read-out: GI
Mus musculus [13] = species: Mus musculus; settings: Harlan, dose 50.0 mg/kg, route po, time 1.0 hrs
[14] = molecular target: Hepatocyte growth factor receptor (Homo sapiens, UniProt P08581); assay: Inhibition of GST tagged c-Met (unknown origin) expressed in baculovirus at pH 7.6 measured after 10 to 30 mins in presence of gamma-[33P]-ATP by scintillation counter analysis
NWT-21 [15] = assay: Antitumor activity against mouse NWT-21 cells xenografted in Hsd athymic nude mouse assessed as plasma insulin level at 50 mg/kg, po bid measured after 1 day; assay type: functional
NWT-21 [16] = settings: Mus musculus, dose 50.0 mg/kg, route po, time 1.0 hrs; remark: listed apart in the source
NWT-21 [17] = settings: Mus musculus, dose 50.0 mg/kg, route po, time 1.0 hrs; remark: listed apart in the source
Insulin receptor [18] = molecular target: T1, Insulin receptor; assay: Inhibition of Ins-R in A14 [Human melanoma] cells assessed as inhibition of autophosphorylation of Ins-R incubated for 90 mins followed by insulin stimulation measured after 10 mins by ELISA analysis; assay type: cell-based
NWT-21 [19] = settings: Mus musculus, dose 50.0 mg/kg, route po, time 1.0 hrs; remark: listed apart in the source
[20] = molecular target: RAC-alpha serine/threonine-protein kinase (Homo sapiens, UniProt P31749); assay: Inhibition of human PKB expressed in baculovirus at pH 7.2 measured after 30 mins in presence of gamma-[33P]-ATP by scintillation counter analysis
[21] = molecular target: Proto-oncogene tyrosine-protein kinase Src (Gallus gallus, UniProt P00523); assay: Inhibition of GST tagged chicken c-Src expressed in baculovirus at pH 7.5 measured after 10 mins in presence of gamma-[33P]-ATP by scintillation counter analysis
[22] = molecular target: Vascular endothelial growth factor receptor 3 (Homo sapiens, UniProt P35916); assay: Inhibition of GST tagged human Flt-4 expressed in baculovirus at pH 7.6 measured after 15 mins in presence of gamma-[33P]-ATP by scintillation counter analysis
[23] = Inhibition of PDGFR (unknown origin) in mouse BALB/3T3 clone A31 cells assessed as inhibition of autophosphorylation of PDGFR incubated for 90 mins followed by PDGF BB stimulation measured after 10 mins in presence of anti-PDGF-R Receptor Type A/B antibody by ELISA analysis; assay type: cell-based; settings: Homo sapiens
[24] = Inhibition of rabbit PKA expressed in baculovirus at pH 7.0 measured after 20 mins in presence of gamma-[33P]-ATP by scintillation counter analysis; parameters: species or system Oryctolagus cuniculus
[25] = molecular target: T3, Mast/stem cell growth factor receptor Kit; assay: Inhibition of GST tagged c-Kit (unknown origin) expressed in baculovirus at pH 7.6 measured after 10 to 30 mins in presence of gamma-[33P]-ATP by scintillation counter analysis
[26] = molecular target: Receptor tyrosine-protein kinase erbB-4 (Homo sapiens, UniProt Q15303); assay: Inhibition of GST tagged human HER-4 expressed in baculovirus at pH 7.5 measured after 15 mins in presence of gamma-[33P]-ATP by scintillation counter analysis
[27] = Inhibition of starfish Cdk1/cycB expressed in baculovirus at pH 8.0 measured after 30 mins in presence of gamma-[33P]-ATP by scintillation counter analysis; parameters: species or system Asteroidea
Mus musculus [28] = species: Mus musculus; settings: Harlan, dose 50.0 mg/kg, route po, time 1.0 hrs; remark: listed apart in the source
[29] = molecular target: T4, Epidermal growth factor receptor (Homo sapiens, UniProt P00533); assay: Inhibition of HER-1 in human A-431 cells assessed as inhibition of autophosphorylation of HER-1 incubated for 90 mins followed by EGF stimulation measured after 10 mins in presence of anti-EGFR Ab5 by ELISA analysis; assay type: cell-based
[30] = molecular target: T4, Epidermal growth factor receptor; assay: Inhibition of GST tagged human HER-1 expressed in baculovirus at pH 7.5 measured after 15 mins in presence of gamma-[33P]-ATP by scintillation counter analysis
[31] = molecular target: Platelet-derived growth factor receptor beta (Homo sapiens, UniProt P09619); assay: Inhibition of GST tagged PDGFR-beta (unknown origin) expressed in baculovirus at pH 7.6 measured after 10 to 30 mins in presence of gamma-[33P]-ATP by scintillation counter analysis
Angiopoietin-1 receptor = Angiopoietin-1 receptor (Homo sapiens, UniProt Q02763); assay: Inhibition of GST tagged Tek (unknown origin) expressed in baculovirus at pH 7.6 measured after 10 to 30 mins in presence of gamma-[33P]-ATP by scintillation counter analysis
NWT-21 [32] = assay: Antitumor activity against mouse NWT-21 cells xenografted in Hsd athymic nude mouse assessed as plasma insulin level at 50 mg/kg, po bid measured after 10 day; assay type: functional
Mus musculus [33] = species: Mus musculus; settings: Harlan, dose 50.0 mg/kg, route po, time 1.0 hrs; remark: listed apart in the source
NWT-21 [34] = assay: Antitumor activity against mouse NWT-21 cells xenografted in Hsd athymic nude mouse assessed as inhibition of tumor growth at 50 mg/kg, po bid administered for 7 weeks relative to control; assay type: functional; settings: NWT-21, 1176 h
[35] = molecular target: Receptor tyrosine-protein kinase erbB-2 (Homo sapiens, UniProt P04626); assay: Inhibition of GST tagged human HER-2 expressed in baculovirus at pH 7.5 measured after 15 mins in presence of gamma-[33P]-ATP by scintillation counter analysis
[36] = molecular target: Vascular endothelial growth factor receptor 1 (Homo sapiens, UniProt P17948); assay: Inhibition of GST tagged Flt-1 (unknown origin) expressed in baculovirus at pH 7.6 measured after 10 to 30 mins in presence of gamma-[33P]-ATP by scintillation counter analysis
[37] = molecular target: RAF proto-oncogene serine/threonine-protein kinase (Homo sapiens, UniProt P04049); assay: Inhibition of GST-tagged c-Raf-1 (unknown origin) expressed in baculovirus infected in Sf21 cells at pH 7.5 measured after 30 mins in presence of gamma-[33P]-ATP by scintillation counter analysis

T1 sequence (P06213 28-758 limits assumed): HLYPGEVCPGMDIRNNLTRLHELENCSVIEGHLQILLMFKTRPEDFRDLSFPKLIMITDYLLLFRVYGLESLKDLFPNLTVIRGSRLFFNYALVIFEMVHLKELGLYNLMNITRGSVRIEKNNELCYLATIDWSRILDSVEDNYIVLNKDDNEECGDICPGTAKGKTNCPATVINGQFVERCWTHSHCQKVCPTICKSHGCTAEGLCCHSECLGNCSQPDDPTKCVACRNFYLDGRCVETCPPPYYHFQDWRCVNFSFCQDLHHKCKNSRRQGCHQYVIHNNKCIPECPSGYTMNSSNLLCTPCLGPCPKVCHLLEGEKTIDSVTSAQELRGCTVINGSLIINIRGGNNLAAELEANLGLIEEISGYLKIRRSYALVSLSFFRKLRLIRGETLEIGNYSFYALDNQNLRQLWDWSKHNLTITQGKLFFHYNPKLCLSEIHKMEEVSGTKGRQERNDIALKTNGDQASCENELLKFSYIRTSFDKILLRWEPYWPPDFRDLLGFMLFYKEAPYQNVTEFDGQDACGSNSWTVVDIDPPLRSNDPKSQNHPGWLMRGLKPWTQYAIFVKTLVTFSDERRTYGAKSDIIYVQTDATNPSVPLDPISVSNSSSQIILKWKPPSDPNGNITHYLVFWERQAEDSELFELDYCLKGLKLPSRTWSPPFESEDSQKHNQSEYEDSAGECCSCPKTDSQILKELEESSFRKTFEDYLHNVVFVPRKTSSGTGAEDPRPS
T1 sequence (P06213 763-1382 limits assumed): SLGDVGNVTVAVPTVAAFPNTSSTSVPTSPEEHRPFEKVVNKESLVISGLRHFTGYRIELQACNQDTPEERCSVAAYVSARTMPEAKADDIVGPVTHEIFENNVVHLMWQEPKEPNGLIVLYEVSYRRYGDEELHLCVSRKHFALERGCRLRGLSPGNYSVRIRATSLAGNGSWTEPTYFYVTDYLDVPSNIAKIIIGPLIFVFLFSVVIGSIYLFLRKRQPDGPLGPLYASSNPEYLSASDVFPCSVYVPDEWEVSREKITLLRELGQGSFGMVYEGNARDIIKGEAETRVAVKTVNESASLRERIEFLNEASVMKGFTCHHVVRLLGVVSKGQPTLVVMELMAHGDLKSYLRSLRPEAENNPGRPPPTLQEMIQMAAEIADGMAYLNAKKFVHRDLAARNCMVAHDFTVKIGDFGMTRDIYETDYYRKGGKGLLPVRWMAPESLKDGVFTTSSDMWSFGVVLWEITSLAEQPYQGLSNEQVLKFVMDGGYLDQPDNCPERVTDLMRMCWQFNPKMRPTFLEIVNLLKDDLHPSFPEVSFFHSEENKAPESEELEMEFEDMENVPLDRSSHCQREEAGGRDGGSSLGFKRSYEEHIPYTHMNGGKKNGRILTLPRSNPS
T4 sequence (P00533 whole entry): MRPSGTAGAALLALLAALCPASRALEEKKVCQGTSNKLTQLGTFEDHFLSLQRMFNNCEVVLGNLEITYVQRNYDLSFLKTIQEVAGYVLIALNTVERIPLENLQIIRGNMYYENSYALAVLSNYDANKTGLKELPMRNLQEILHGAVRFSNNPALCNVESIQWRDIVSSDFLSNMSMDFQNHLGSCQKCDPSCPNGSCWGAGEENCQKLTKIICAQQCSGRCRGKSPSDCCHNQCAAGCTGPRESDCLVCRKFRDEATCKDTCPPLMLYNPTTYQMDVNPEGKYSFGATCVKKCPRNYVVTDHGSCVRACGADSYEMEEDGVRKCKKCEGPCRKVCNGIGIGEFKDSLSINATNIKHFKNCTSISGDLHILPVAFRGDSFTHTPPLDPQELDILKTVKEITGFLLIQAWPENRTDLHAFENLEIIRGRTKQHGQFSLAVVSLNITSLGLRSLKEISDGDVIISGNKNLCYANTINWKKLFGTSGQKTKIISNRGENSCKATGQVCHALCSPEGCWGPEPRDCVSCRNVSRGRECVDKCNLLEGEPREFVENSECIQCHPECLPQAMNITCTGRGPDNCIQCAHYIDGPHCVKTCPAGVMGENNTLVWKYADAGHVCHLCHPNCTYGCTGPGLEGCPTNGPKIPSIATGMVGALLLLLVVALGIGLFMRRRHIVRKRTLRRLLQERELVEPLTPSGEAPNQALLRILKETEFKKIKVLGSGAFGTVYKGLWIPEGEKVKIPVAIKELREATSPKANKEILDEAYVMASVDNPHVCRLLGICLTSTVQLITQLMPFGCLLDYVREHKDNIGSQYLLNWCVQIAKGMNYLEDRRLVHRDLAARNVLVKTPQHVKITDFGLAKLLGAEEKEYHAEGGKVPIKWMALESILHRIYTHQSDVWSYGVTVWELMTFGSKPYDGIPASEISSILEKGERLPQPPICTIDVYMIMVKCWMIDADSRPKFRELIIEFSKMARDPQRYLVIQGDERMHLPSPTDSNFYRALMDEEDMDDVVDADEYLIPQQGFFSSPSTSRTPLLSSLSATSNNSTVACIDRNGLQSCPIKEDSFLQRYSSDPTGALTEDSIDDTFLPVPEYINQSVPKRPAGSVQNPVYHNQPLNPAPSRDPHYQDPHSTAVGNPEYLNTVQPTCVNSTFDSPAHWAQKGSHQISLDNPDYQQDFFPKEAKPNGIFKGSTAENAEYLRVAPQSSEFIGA
T3 sequence (P10721 whole entry): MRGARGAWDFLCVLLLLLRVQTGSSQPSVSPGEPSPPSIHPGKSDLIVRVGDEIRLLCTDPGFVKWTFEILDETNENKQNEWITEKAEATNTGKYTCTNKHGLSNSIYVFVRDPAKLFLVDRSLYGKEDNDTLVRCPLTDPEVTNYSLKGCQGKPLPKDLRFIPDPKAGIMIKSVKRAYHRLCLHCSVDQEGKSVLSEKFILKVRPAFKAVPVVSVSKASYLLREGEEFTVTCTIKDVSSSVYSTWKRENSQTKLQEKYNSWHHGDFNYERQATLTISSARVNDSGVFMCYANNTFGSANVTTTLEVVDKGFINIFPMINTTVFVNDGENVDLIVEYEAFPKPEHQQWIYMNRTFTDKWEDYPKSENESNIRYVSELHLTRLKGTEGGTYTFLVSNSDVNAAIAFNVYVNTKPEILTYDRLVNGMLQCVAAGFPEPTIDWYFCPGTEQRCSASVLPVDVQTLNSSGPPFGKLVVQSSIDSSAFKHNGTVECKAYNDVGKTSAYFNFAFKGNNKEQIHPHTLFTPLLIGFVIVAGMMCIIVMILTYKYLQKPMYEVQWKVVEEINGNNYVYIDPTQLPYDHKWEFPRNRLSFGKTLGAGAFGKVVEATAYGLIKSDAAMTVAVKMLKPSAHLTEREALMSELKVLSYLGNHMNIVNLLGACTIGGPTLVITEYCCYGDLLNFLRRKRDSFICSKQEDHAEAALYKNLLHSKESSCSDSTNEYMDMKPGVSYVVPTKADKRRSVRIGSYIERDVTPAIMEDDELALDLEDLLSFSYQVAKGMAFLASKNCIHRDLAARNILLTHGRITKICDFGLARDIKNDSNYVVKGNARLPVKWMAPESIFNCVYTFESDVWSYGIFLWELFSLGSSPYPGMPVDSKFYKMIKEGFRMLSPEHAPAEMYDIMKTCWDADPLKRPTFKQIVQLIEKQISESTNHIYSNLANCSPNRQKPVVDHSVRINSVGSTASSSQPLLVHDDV
Sequence of Vascular endothelial growth factor receptor 2 (P35968 whole entry): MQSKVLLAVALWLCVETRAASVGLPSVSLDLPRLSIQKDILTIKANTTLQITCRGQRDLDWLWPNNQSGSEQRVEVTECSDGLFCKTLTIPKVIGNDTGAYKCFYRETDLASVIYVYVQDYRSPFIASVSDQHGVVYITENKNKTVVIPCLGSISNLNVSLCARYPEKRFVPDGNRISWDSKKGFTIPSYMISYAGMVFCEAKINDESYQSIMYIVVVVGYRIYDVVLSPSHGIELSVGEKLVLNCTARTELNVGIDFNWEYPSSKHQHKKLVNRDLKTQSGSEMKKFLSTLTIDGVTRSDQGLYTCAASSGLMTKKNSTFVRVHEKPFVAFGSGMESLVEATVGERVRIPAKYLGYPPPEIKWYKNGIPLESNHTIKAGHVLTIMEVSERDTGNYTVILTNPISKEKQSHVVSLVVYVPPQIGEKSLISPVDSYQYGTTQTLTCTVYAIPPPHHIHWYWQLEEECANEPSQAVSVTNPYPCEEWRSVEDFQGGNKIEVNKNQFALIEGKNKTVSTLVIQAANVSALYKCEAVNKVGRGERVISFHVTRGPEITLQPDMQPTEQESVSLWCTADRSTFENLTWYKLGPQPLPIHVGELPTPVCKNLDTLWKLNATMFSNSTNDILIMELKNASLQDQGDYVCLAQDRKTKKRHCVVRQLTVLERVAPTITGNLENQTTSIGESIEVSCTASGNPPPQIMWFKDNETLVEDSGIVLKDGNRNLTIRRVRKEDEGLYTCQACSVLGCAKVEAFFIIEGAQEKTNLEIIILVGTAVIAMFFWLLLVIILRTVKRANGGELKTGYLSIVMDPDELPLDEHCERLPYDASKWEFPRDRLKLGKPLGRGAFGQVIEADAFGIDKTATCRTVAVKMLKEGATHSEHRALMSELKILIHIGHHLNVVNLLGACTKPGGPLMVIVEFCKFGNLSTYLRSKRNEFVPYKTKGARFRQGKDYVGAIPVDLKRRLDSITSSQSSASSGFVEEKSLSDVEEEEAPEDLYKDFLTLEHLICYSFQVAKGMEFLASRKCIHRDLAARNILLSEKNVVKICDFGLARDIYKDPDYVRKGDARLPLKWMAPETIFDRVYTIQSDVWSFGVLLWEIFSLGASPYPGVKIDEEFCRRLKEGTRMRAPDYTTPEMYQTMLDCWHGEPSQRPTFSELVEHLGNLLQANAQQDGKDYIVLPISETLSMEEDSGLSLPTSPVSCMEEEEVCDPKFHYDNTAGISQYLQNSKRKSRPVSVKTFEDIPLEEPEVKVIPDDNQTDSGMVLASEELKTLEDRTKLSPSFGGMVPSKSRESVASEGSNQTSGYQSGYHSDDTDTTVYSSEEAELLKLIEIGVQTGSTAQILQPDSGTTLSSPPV

Nc1ncnc2c1c(-c1cccc(OCc3ccccc3)c1)cn2[C@H]1C[C@@H](CN2CCC2)C1
IC50 (Insulin receptor [1]): 140 nM | IC50 [2]: 420 nM | inhibition (NWT-21 [3]): Active | IC50 [4]: 2300 nM | Activity (NWT-21 [5]): 204.4 mg/dL | T/C at 20 mg/kg (NWT-21 [6]): 32% | Activity [7]: Non-Toxic | IC50 [8]: 4100 nM | IC50 [9]: > 10000 nM | IC50 [10]: > 5000 nM | Activity (NWT-21 [11]): 197.4 mg/dL | inhibition in vivo at 30 mg/kg (NWT-21 [12]): 28% | inhibition (Mus musculus [13]): Active | IC50 [14]: 3800 nM | Activity (NWT-21 [15]): 14.4 uU/ml | inhibition (NWT-21 [16]): Active | inhibition (NWT-21 [17]): Active | IC50 (Insulin receptor [18]): 2300 nM | inhibition (NWT-21 [19]): Active | IC50 [20]: > 10000 nM | IC50 [21]: 2400 nM | IC50 [22]: 2400 nM | IC50 [23]: > 10000 nM | IC50 [24]: > 10000 nM | IC50 [25]: 3300 nM | IC50 [26]: 1400 nM | IC50 [27]: > 10000 nM | inhibition (Mus musculus [28]): Active | IC50 [29]: > 10000 nM | IC50 [30]: 5800 nM | IC50 [31]: 2000 nM | IC50 (Angiopoietin-1 receptor): 530 nM | Activity (NWT-21 [32]): 28.9 uU/ml | inhibition (Mus musculus [33]): Active | T/C at 50 mg/kg (NWT-21 [34]): 14% | IC50 [35]: 4100 nM | IC50 [36]: 600 nM | IC50 [37]: > 10000 nM
